Results published in article PMC6035067 (The Biochemical journal, 2018).
“Also recorded” adds a separate entry of the source. Read-outs that look alike come from different tables or passages of the source.

How the values were obtained:
EtCYP112 [1] = molecular target: T1, EtCYP112 (Erwinia tracheiphila, UniProt A0A0M2KIP9); test: UV-Vis spectral binding titration of EtCYP112; conditions: for shift of the Soret-band from 419 to 391 nm: upon ligand addition
EtCYP112 [2] = molecular target: T1, EtCYP112; assay type: biochemical; conditions: 20 μM substrate, 60 μM NADPH, 12 h at 25 °C
EtCYP112 [3] = molecular target: T1, EtCYP112; conditions: previously tested as substrates; ref [9]; cited from earlier work
[4] = conversion of EtCYP112 to high-spin state upon ligand addition
[5] = α-band absorption at 570 nm upon ligand addition

conversion by EtCYP112 (products observed) (EtCYP112 [2])	Compound	High Spin State (EtCYP112 [1]; [4])	α-band Absorbtion (EtCYP112 [1]; [5])	other results
did not serve as substrates	C=C1C[C@@]23CC[C@@H]4C(C)(C)CCC[C@@]4(C)[C@@H]2CC[C@@H]1C3 [ent-kaurene]	< 5%	no decrease; also recorded: unchanged	shift of the Soret-band from 419 to 391 nm (EtCYP112 [1]): only induces a small shift
	C=C1C[C@]23C[C@H]1CC[C@H]2[C@]1(C(=O)O)CCC[C@@](C)(C(=O)O)[C@H]1[C@@H]3C(=O)O [GA25]	10 – 20%	without any decrease; also recorded: unchanged	shift of the Soret-band from 419 to 391 nm (EtCYP112 [1]): 10–20%; conversion by EtCYP112 (EtCYP112 [3]): does not react
no products were observed	C=C1C[C@@]23CC[C@@H]4[C@](C)(CO)CCC[C@@]4(C)[C@@H]2CC[C@@H]1C3 [ent-kaurenol]	20 – 30%	decreased	
	C=C1C[C@]23C[C@H]1CC[C@H]2[C@@]12CCC[C@@](C)(C(=O)O1)[C@H]2[C@@H]3C(=O)O [GA9]	< 5%	without any decrease; also recorded: unchanged	shift of the Soret-band from 419 to 391 nm (EtCYP112 [1]): ~5%
no products were observed	C=C1C[C@@]23CC[C@H]4[C@@](C)(CCC[C@@]4(C)C=O)[C@@H]2CC[C@@H]1C3 [ent-kaurenal]	5 – 10%	decreased	
	C=C1C[C@]23C[C@H]1CC[C@H]2[C@]1(CO)CCC[C@@](C)(C(=O)O)[C@H]1[C@@H]3C(=O)O [GA15 (open lactone), GA15]			High Spin State (EtCYP112 [1]): > 90%; α-band Absorbtion (EtCYP112 [1]): decreased
	C=C1C[C@]23C[C@H]1CC[C@H]2[C@@]12CCC[C@@](C)(C(=O)OC1)[C@H]2[C@@H]3C(=O)OC [MeGA15]	80 – 90%	decreased	fold more tightly bound than the analogous form of free GA15 (EtCYP112 [1]; MeGA15 (closed δ-lactone) relative to GA15 closed lactone): about 6 fold; conversion by EtCYP112 (EtCYP112 [3]): converted by EtCYP112 to GA9
	C=C1C[C@]23C[C@H]1CC[C@H]2[C@]1(C)CCC[C@@](C)(C(=O)O)[C@H]1[C@@H]3C(=O)O [GA12]	> 90%	decreased	
	C=C1C[C@]23C[C@H]1CC[C@H]2[C@]1(C=O)CCC[C@@](C)(C(=O)OC)[C@H]1[C@@H]3C(=O)OC [MeGA24]	5 – 10%	no decrease; also recorded: unchanged	shift of the Soret-band from 419 to 391 nm (EtCYP112 [1]): only induces a partial shift; conversion by EtCYP112 (EtCYP112 [3]): does not react
no products were observed	C=C1C[C@@]23CC[C@H]4[C@@](C)(CCC[C@@]4(C)C(=O)OC)[C@@H]2CC[C@@H]1C3 [methyl-ent-kaurenoate]	10 – 15%	decreased	
	C=C1C[C@]23C[C@H]1CC[C@H]2[C@]1(C=O)CCC[C@@](C)(C(=O)O)[C@H]1[C@@H]3C(=O)O [GA24]	80 – 90%	decreased	
	C=C1C[C@]23C[C@H]1CC[C@H]2[C@]1(C)CCC[C@@](C)(C(=O)OC)[C@H]1[C@@H]3C(=O)OC [MeGA12]	50 – 60%	decreased	fold higher Kd than free GA12 (EtCYP112 [1]; Kd of MeGA12 relative to GA12): 5 fold; conversion by EtCYP112 (EtCYP112 [3]): converted by EtCYP112 to GA9
	C=C1C[C@]23C[C@H]1CC[C@H]2[C@@]12CCC[C@@](C)(C(=O)OC1)[C@H]2[C@@H]3C(=O)O [GA15 (closed lactone), GA15]	> 90%	decreased	

Compound	conversion by EtCYP112 (products observed) (EtCYP112 [2])	High Spin State (EtCYP112 [1]; [4])	α-band Absorbtion (EtCYP112 [1]; [5])	other results
C=C1C[C@]23C[C@H]1CC[C@H]2[C@]1(C)CCC[C@@](C)(C(=O)O)[C@H]1[C@@H]3C=O [GA12-aldehyde]	transformed into two products	> 90%	decreased	
C=C1C[C@]23C[C@H]1CC[C@H]2[C@]1(C)CCC[C@@](C)(C(=O)O)[C@H]1C[C@@H]3O (single isomer, unassigned) [ent-7α-hydroxy kaurenoic acid]	no products were observed	50 – 60%	decreased	
C=C1C[C@@]23CC[C@H]4[C@@](C)(CCC[C@@]4(C)C(=O)O)[C@@H]2CC[C@@H]1C3 [ent-kaurenoic acid]	no products were observed	50 – 60%	decreased	
